Reference: ChEMBL document CHEMBL1201862, “PubChem BioAssay data set” (2004)
Activity calls are given as the source filed them.

Experiments:
[1] = target: T1, Sentrin-specific protease 8 (Homo sapiens, UniProt Q96LD8); assay type: functional;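 further: kinetic enzyme assay of SENP8 cleaving a Nedd8 protein substrate, dose-response confirmation of screening hits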
T1 sequence (Q96LD8 whole entry): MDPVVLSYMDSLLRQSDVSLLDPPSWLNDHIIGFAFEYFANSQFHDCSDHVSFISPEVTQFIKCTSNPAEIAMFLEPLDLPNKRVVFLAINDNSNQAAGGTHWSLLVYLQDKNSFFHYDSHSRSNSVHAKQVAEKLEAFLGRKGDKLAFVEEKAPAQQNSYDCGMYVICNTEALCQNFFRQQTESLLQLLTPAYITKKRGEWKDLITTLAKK

Leucine aminopeptidase = target: T2, Leucine aminopeptidase (Plasmodium falciparum 3D7, UniProt Q8IL11); assay: P. falciparum M17LAP inhibitors, primary screen, biochemical, fluorogenic H-Leu-NHMec substrate, 1536-well (AID 1619); assay type: functional
T2 sequence (Q8IL11 whole entry): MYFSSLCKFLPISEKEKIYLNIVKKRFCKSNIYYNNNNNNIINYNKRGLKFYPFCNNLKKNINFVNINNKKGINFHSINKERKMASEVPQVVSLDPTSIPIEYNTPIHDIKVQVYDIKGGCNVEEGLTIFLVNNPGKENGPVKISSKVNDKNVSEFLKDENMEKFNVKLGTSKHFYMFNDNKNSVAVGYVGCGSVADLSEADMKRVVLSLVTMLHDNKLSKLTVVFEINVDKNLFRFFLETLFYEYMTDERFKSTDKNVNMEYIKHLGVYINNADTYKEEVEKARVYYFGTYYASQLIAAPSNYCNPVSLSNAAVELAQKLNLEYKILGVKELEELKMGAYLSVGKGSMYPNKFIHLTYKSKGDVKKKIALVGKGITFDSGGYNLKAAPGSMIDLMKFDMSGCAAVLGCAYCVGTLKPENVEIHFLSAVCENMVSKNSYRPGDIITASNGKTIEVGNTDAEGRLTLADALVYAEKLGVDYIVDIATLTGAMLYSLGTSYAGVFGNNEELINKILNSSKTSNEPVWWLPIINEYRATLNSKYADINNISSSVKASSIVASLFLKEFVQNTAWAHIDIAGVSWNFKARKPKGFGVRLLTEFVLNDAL

Large T antigen = Large T antigen (Simian virus 40, UniProt P03070); assay type: functional, Betapolyomavirus macacae;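 further: Confirmatory-stage PubChem screen for compounds that inhibit SV40 T antigen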
Sequence of Large T antigen (P03070 whole entry): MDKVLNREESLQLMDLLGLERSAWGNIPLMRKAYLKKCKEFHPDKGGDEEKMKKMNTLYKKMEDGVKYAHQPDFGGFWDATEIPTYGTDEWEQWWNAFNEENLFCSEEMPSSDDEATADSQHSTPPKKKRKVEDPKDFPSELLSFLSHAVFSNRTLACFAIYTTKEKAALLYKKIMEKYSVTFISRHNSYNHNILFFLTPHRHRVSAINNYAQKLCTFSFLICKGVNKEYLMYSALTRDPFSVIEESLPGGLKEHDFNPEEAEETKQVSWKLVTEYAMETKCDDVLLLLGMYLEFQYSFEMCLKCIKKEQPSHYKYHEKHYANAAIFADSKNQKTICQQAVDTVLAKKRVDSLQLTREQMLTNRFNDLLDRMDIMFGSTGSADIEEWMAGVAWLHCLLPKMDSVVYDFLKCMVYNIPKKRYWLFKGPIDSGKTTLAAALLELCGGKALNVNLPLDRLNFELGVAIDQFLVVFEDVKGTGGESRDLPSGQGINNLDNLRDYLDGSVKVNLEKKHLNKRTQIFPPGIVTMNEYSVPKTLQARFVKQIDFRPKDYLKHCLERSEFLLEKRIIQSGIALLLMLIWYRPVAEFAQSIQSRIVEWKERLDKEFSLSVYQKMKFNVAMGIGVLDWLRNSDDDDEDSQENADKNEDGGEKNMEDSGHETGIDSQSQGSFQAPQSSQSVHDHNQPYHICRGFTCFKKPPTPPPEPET

Aminopeptidase N = target: T3, Aminopeptidase N (Plasmodium falciparum FcB1/Columbia, UniProt O96935); assay: P. falciparum M1AAP inhibitors, biochemical, fluorogenic H-Leu-NHMec substrate, 1536-well (AID 1445); parameters: species or system Plasmodium falciparum 3D7, 3D7
T3 sequence (O96935 whole entry): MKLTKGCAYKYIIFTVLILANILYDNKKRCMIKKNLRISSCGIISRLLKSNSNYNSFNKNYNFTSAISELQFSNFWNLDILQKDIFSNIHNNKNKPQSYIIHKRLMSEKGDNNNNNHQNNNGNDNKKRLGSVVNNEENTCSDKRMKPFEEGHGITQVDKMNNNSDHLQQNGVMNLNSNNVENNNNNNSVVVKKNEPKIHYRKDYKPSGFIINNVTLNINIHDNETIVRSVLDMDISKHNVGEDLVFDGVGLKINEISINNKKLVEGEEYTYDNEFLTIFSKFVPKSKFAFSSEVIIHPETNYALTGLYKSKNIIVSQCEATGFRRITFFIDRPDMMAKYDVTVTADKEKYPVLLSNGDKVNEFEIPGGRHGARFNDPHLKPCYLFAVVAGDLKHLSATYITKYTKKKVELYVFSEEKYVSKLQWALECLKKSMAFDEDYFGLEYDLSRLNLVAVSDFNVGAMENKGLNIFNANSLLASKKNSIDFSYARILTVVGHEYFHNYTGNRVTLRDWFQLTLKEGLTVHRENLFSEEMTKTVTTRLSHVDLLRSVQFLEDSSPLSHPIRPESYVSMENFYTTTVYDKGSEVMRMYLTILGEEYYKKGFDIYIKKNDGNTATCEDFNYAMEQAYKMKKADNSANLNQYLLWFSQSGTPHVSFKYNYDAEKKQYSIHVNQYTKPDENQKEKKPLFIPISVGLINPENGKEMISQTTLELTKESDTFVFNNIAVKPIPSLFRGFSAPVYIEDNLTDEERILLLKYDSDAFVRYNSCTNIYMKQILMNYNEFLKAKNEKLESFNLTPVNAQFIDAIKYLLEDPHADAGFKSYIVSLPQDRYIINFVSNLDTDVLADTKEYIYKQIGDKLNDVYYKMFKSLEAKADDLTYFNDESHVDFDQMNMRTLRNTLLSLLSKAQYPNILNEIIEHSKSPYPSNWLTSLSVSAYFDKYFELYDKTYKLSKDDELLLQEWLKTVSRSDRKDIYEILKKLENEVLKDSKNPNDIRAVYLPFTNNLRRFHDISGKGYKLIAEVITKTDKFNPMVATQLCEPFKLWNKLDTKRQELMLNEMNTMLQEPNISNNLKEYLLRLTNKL

Streptococcus = assay: Group A Streptococcus viability loss, dose response, counter-screen for streptokinase expression inhibitor project, luminescence, BacTiterGlo (AID 1915); assay type: functional, organism-based; settings: Streptococcus;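 further: potency for reduction of bacterial viability or growth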
[2] = Luminescence Cell-Based Dose Response HTS to Identify Activators of 5'UTR Stem-Loop Driven Prion Protein mRNA Translation in H4-C Neuroglioblastoma Cells. [Related pubchem assays: 1829 (Project Summary), 1814 (Primary HTS)]; assay type: functional
[3] = cytotoxicity toward NIH3T3 fibroblasts, dose response, counter-screen, cell-based, ATP luminescence, mouse fibroblasts (AID 2010); assay type: functional;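 further: cells exposed to compound for about 90 hours before reading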
[4] = target: T4, Bifunctional protein GlmU (Mycobacterium tuberculosis, UniProt P9WMN3); assay: Inhibitors of Mycobacterial Glucosamine-1-phosphate acetyl transferase (GlmU). Secondary screen.; parameters: species or system Mycobacterium tuberculosis H37Rv
T4 sequence (P9WMN3 whole entry): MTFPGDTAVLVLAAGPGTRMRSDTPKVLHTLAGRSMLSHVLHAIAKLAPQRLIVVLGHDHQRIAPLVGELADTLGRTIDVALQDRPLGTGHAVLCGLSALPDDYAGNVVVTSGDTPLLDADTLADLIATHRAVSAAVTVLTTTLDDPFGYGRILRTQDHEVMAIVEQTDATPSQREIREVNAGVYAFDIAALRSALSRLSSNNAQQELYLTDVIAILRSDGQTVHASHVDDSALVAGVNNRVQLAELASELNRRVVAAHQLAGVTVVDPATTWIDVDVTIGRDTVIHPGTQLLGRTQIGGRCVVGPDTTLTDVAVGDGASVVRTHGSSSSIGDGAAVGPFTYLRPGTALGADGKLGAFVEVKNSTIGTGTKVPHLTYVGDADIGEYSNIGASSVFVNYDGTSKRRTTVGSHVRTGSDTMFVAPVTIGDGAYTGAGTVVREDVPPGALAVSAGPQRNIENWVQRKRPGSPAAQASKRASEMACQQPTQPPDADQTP

## COc1cc(C(=O)c2nccc3cc(OC)c(OC)cc23)c([N+](=O)[O-])cc1OC
[1]
  IC50: 0.535 µM (active)

## N#Cc1c(O)nc(SCC(=O)N2c3ccccc3Sc3ccccc32)nc1-c1ccccc1
Leucine aminopeptidase
  IC50: 10.2 µM (active)
Large T antigen
  IC50: 52.7 µM (active)
Aminopeptidase N
  IC50: 11.2 µM (active)
Streptococcus
  EC50: 13.9 µM (active)

## c1ccc2c(Nc3nnc(-c4ccncc4)s3)cccc2c1
[2]
  EC50: 40 µM (active)
[3]
  EC50: > 60 µM (not active)

## N=C1S/C(=C\c2ccc(-c3ccccc3C(=O)O)o2)C(=O)N1c1ccc2c(c1)OCO2
Leucine aminopeptidase
  IC50: 29 µM (active)
Aminopeptidase N
  IC50: 10.3 µM (active)
[4]
  IC50: 153 µM (active)
